Measured values from patent US10626349B2, “Cleavable surfactants” (PROMEGA CORPORATION, priority 2007, dated 2020).

Legend:
[1] = molecular target: T1, Myoglobin from horse heart digested with trypsin (Equus caballus, UniProt P68082); experiment: Myoglobin/Trypsin digest, HPLC peak area versus RapiGest control; type: biochemical; conditions: 0.01% surfactant, trypsin 50:1, 20 minutes at 37° C.; ratio to RapiGest control, >1 = more digestion
T1 construct: Myoglobin from horse heart; from tissue; host or cells: horse heart
T1 sequence (P68082 2-154 limits assumed): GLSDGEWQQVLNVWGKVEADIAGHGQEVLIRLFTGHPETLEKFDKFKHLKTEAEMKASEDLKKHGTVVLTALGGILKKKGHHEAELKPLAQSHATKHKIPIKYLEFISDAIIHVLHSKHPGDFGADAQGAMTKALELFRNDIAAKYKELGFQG
Method: Myoglobin from horse heart (typically 25 μs) was digested with trypsin (Promega) at a 50:1 ratio in a volume of 125 μL (typical) of 50 mM Ammonium bicarbonate for 20 minutes at 37° C. with 0.01% RapiGest™ surfactant or 0.01% of the indicated compound of the invention (upper and lower chromatograms, respectively). TFA was added to 0.5-2% and the mixtures were incubated at 37° C. or 65° C. for 20 or 30 minutes. Degraded surfactant was removed by centrifugation at 14,000×g for 5 minutes. HPLC analysis was performed on a 25-50 μL reaction sample using an HP1050 LC system with an Agilent Sorbax SB-C18 column (3.0×100 mm, 3.5 micron) and a gradient of 0.1% TFA (97.5% initial) and Acetonitrile, 0.01% TFA (55% final condition followed by a 100% wash step) and a flow rate of 0.75 mL/min. Peptides were detected at 214 and 280 nm.
(§1) For each compound numbered below in Example 12, the rate of enhanced digestion was determined from the ratio of the surfactant peak area (surfactant # Pk. Area) to the Rapigest™ surfactant peak area (RG Pk area). Peak area was determined as the sum of all peaks integrated from 8-22 minutes.

[2] = Solubility of the surfactant; conditions: for solubility in aqueous solutions (concentration dissolved to) / solubility in aqueous solutions (in words): aqueous solution
[3] = Acid and thermal degradation of the surfactant; conditions: for time to degradation of 0.01% solution: 37° C. where stated; for acid-lability (in words): 0.5% TFA at 37° C. where stated (3237: 30 minutes), 3271 by TLC analysis; for thermolability (in words): 3266: 5 minutes at 95° C.
[4] = molecular target: T2, Bacteriorhodopsin digested with chymotrypsin (Halobacterium salinarum, UniProt P02945); experiment: Bacteriorhodopsin/Chymotrypsin digest, HPLC peak area versus RapiGest control; type: biochemical; conditions: 0.025% surfactant, BR heated (boiled) with surfactant 5 minutes at 95° C., chymotrypsin 10:1, 1 hour at 37° C.; ratio to RapiGest control
T2 sequence (P02945 14-261 limits assumed): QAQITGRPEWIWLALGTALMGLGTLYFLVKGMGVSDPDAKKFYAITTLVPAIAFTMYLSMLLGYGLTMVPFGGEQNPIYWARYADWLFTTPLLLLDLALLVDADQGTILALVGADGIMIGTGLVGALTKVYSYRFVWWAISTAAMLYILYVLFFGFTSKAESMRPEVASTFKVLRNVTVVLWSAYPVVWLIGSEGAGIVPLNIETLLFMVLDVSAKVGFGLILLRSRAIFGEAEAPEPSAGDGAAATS
Method: Bacteriorhodopsin (25 μs) was heated with 0.025% Rapigest™ surfactant or the indicated compound of the invention for 5 minutes at 95° C., then digested with chymotrypsin (Sigma) at a 10:1 ratio in 125 μL 50 mM Ammonium bicarbonate for 1 hour at 37° C. After one hour TFA was added to 0.5-2% and the mixtures were incubated at 37° C. or 65° C. for 20 or 30 minutes. Degraded surfactant was removed by centrifugation at 14,000×g for 5 minutes. An aliquot of 50-100 μL of digested protein was analyzed by HPLC as described above.
Compound 3211, 3212, 3224 and Rapigest™ surfactant control for FIG. 13C reactions: Bacteriorhodopsin (25 μs) was solubilized with 0.025% compound of interest for 1-2 minutes at room temperature, then digested with chymotrypsin (Sigma) at a 10:1 ratio in 125 μL 50 mM Ammonium bicarbonate for 1 hour at 37° C. After one hour TFA was added to 0.5-2% and the mixtures were incubated at 37° C. or 65° C. for 20 or 30 minutes. Degraded surfactant was removed by centrifugation at 14,000×g for 5 minutes. An aliquot of 50-100 μL of digested protein was analyzed by HPLC as described above.
as §1

[5] = Hydrolytic stability in 50 mM ammonium bicarbonate (reverse-phase HPLC); type: physicochemical
Method: Hydrolytic stability was measured by monitoring the change in retention time of the intact surfactant by reverse-phase HPLC. The ½-life is defined as the time required to reach 50% degradation.

[6] = surfactant conc. 1% in 50 mM ammonium bicarbonate

SMILES | surfactant Pk area/RG Pk area, Myoglobin/Trypsin digest [1] | solubility in aqueous solutions (concentration dissolved to) [2] | surfactant Pk area/RG Pk area, Bacteriorhodopsin/Chymotrypsin digest [4] | other results
CCCCCCCCCCCCC(OC(=O)NCCCS(=O)(=O)O)c1cc(OC)c(OC)c(OC)c1 (stereo not drawn) [Compound 3267] | 0.9 | – | – | solubility (concentration dissolved to) ([2]; in 50 mM ammonium bicarbonate): 2%; degradation by acid (0.5% TFA) or by heat (boiling), in words ([3]; 3236: 0.1% solution in 0.5% TFA 30 minutes at 37° C. or 5 minutes of boiling without TFA): Did not degrade in 0.5% TFA or by boiling
CCCCCC(OC(=O)SCCS(=O)(=O)O)c1ccccc1 (stereo not drawn) [Compound 3207] | – | 0.5% | – | time to degradation of 0.01% solution [3]: ≤ 60 min
CCCCCCCCCCC(OC(=O)NCCCS(=O)(=O)O)c1ccsc1 (stereo not drawn) [Compound 3273] | 0.75 | 1% | – | acid-lability (in words) [3]: Just partially acid-labile; thermolability (in words) [3]: thermostable
CCCCCCCCCCC1COC(c2cc(OCCCS(=O)(=O)[O-])ccc2[N+](=O)[O-])O1.[Na+] (stereo not drawn) [Compound 3225] | 1.1 | – | 0.9 | solubilized in DMSO to ([2]; 100% DMSO): 10%; solubility in aqueous solutions (in words) [2]: Not soluble in aqueous solutions; acid-lability (in words) [3]: slowly degrades in 0.5% TFA at 37 °C; thermolability (in words) [3]: No thermolability was observed
CCCCCCOc1ccc(COC(=O)NCCCS(=O)(=O)O)cc1 [Compound 3186] | – | – | 0.45 | solubility in aqueous solutions (in words) [2]: some solubility in aqueous solution; time to degradation of 0.01% solution [3]: ≤ 30 min
CCCCCCCCCCC(OC(=O)NCCCS(=O)(=O)O)c1ccc(Br)o1 (stereo not drawn) [Compound 3270] | 0.8 | 0.5% | – | ½-life ([5]; surfactant conc. 0.025% in 50 mM ammonium bicarbonate): 6.5 h; ½-life [5, 6]: 40 h
CCCCCCCC(C)(C)OC(=O)Oc1ccc(NCCCS(=O)(=O)[O-])cc1.[Na+] [Compound 3210] | 0.3 | 0.5% | – | degradation rate (grade in words) [3]: moderate
CCCCCCCCCCCCOc1ccc(/C=N/CCCS(=O)(=O)O)cc1 [Compound 3221] | 0.13 | 0.5% | 0.5 | –
CCCCCC/C=C/C(C)OC(=O)NCC(O)CS(=O)(=O)[O-].[Na+] (stereo not drawn) [Compound 3203] | – | 0.5% | 0.4 | degradation of 0.1% solution (in words) [3]: degraded after overnight incubation
CCCCCCCCCCCC(C)(C)OC(=O)Oc1ccc(N(CCCCS(=O)(=O)[O-])CCCCS(=O)(=O)O)cc1.[Na+] [Compound 3196] | 0.65 | 0.5% | – | time to degradation of 0.01% solution [3]: 30 min; degradation of 0.1% solution (in words) [3]: overnight
CCCCCCCCCCC(OC(=O)NCCCS(=O)(=O)O)c1cccs1 (stereo not drawn) [Compound 3269] | 1 | 1% | – | ½-life ([5]; surfactant conc. 0.03% in 50 mM ammonium bicarbonate): 7 h; ½-life [5, 6]: 135 h
